Laboratory results from patent publication US20210276960A1, “INHIBITORS OF TISSUE TRANSGLUTAMINASE 2 (TG2) AND USES THEREOF” (Northwestern University, priority 2020, published 2021).

What was measured:
[1] = target: T1, His-tagged TG2 / biotinylated FN42 interaction (Homo sapiens, UniProt P21980); test: ELISA of the TG2-FN interaction; format: binding
T1 construct: made in house
T1 sequence (P21980 1-687): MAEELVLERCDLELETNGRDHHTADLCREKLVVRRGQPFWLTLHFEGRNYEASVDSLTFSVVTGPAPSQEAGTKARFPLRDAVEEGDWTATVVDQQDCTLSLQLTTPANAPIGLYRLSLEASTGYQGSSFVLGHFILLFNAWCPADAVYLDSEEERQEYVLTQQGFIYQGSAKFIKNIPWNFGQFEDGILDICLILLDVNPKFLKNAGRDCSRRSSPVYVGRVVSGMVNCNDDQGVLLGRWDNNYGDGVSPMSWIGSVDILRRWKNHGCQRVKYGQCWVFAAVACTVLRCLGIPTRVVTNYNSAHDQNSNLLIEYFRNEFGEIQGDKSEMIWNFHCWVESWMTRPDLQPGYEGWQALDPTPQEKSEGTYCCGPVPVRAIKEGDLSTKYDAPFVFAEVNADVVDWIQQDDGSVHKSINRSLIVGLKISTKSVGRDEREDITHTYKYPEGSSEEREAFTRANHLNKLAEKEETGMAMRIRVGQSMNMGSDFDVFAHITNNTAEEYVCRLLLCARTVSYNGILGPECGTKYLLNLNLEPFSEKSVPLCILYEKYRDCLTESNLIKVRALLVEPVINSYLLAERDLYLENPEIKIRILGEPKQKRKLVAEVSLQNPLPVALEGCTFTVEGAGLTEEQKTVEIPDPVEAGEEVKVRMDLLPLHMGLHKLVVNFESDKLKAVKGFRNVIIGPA
Method: Confirmation using ELISA: An independent ELISA validated inhibition of TG2/FN complex formation by SMIs^11. The ELISA assay measured the binding between His6-TG2 captured to the wells by anti-His antibodies and biotinylated FN42 detectable with streptavidin-HRP (FIG. 12A). […] Selected compounds (at concentrations between 5 and 10 μM) inhibited the ELISA signal by 29.7% to 69.5%^11.
ELISA measured the interaction between recombinant His tagged TG2 (rTG2-His) and the biotinylated 42 kD fragment of FN (FN42) which were expressed and purified, as previously described (Yakubov et al., 2014). Briefly, a mixture of 10 nMrTG2-His and selected SMIs or DMSO was added to 96 well plates pre-coated with monoclonal anti-His antibody (Roche, Indianapolis, Ind.; 1:6000). The mixture was incubated for 1 h at RT with 5 nM biotinylated FN42. After washing, wells were incubated with streptavidin-HRP (Cell Signaling, #3999; 1:2000). The reaction was developed with 3,3′,5,5′tetramethylbenzidine (TMB) substrate (BD Biosciences, #555214) and the optical density at […] was measured by using a BioTek microplate reader (Winooski, Vt., USA). Data shown are means±SEM of two independent experiments (n=6).

[2] = tested on: integrin β1 on SKOV3 cells; test: Flow cytometry of surface integrin β1, SKOV3; format: cell-based; conditions: serial concentrations
Method: FIG. 32. Flow cytometry analysis of integrin 31 plasma membrane expression. […] OC cells were pre-incubated 1 h with serial dilutions of MT4 (as compared to TG53- and DMSO-treated cells), and left to attach for on either plastic (P) or fibronectin (FN) coated 6-well plates. Anti-integrin 31 antibodies (0.5 μg/mL) were used as control.

[3] = tested on: FAK and ERK phosphorylation in OVCAR5 cells; test: Western blotting, time course after attachment to FN; format: cell-based, human; conditions: 5 μM
Method: FIG. 5. Effects of SMIs targeting the TG2/FN complex on “outside-in” signaling and adhesion to mesothelial surfaces. A, Western blot analysis of total and phosphorylated FAK and ERK was performed using cell lysates extracted from OVCAR cells plated on FN for 15 to 45 minutes in the presence of TG53 (left) or MT-4 (right) at 5 μM concentration, as compared to DMSO. GAPDH was used as a control. OVCAR5 cells had been pretreated with the inhibitors for 72 hours. Densitometry analysis used the Quantity One software and results were normalized to GAPDH loading controls. DMSO 0 min time point was considered as 1 for comparative analysis. Values are shown for each band. B, A modified cell adhesion assay measured the effects of TG53, MT-4, MT-5, and MT-6 (25 μM) on SKOV3 cells' adhesion onto semi-confluent LP9 monolayers. C, Dose-dependent effects of TG53, MT-4, MT-5, and MT-6 on OVCAR433 cells adhesion onto semi-confluent LP9 monolayers. D-E, Wound healing assay measures migration of SKOV3 and OVCAR5 cells in the presence of MT-4, MT-5, MT-6 at a concentration of 8 μM (black bars) or vehicle (open bar). Migration rate was determined over a period of 24 hours by measuring the average distance between the wound borders at the beginning and at the end of the assay interval (n=4). F-G, SKOV3-GFP OC cells were injected ip in NSG mice in the presence of either MT-4 ([…]) (F) or MT-6 ([…]) (G) and allowed to attach to the peritoneal wall. After 2 hours, the cell suspension was recovered from the peritoneal cavity through peritoneal washings and the non-attached OC cells recovered were counted. *p<0.05, **p<0.01, ***p<0.001, ****p<0.0001.
OVCAR5 cells were seeded(1×10^5 cells/well) in 6-well plates (Denville Scientific) and treated for 72 hrs with 1 μM MT-4, TG53 or vehicle control (DMSO). After drug exposure, cells were detached using Cellstripper (cellgro, #25-056-CI, CORNING, Manassas, Va., USA), centrifuged, and counted. Before seeding for either confocal microscopy or western blotting, they were incubated in serum free media in the presence of drugs for 15-90 minutes, as stated in the figure legends.
Cells pre-treated as stated above were seeded in 60 mm dishes coated with 5 μg/mL FN and serially harvested at 15, 30, and 45 minutes, − or left unattached (0 min), in cold RIPA buffer. Lysates were separated by SDS-PAGE, transferred onto PVDF membranes (Bio-Rad), incubated with primary and secondary antibodies and developed by using SuperSignal™ West Femto Maximum Sensitivity Substrate and Pierce™ ECL Western Blotting Substrate, respectively (Thermo Scientific). […] Densitometry analysis was performed using Quantity One software (Bio-Rad) and results were normalized to GAPDH loading controls. […]

Row | Structure (SMILES) | binding mode (Lineweaver-Burk plot analysis) [1] | inhibition of ELISA signal ([1]; 5 μM) | Ki ([1]; saturation curves of FN42 with increasing TG53, read-out: inhibition constant Ki) | β1 integrin receptors at the plasma membrane [2] | FAK phosphorylation, time course ([3]; 15 to 45 minutes on FN) | time of peak FAK activation post cell seeding on FN ([3]; control 15 minutes) | inhibition of rTG2-FN42 interaction relative to TG53 ([1]; 10 μM) | ERK phosphorylation, time course ([3]; 15 to 45 minutes on FN)
1 | COc1ccc(Cl)cc1C(=O)Nc1ccc(Nc2nc(C)cc(N(C)C)n2)cc1 [TG53] | competes for the same binding site in TG2 as FN42 | 65% | 4.15 µM | did not show significant downregulation | modestly delayed | 30 min |  | 
2 | Cc1cc(N(C)C)nc(Nc2ccc(NC(=O)Cc3ccccc3)cc2)n1 [MT-4] |  |  |  | did not show significant downregulation | more evident |  | slightly more potently than TG53 | inhibited and delayed
